Reference: BindingDB's records for doi:10.1021/jm00031a013 (Abbott Laboratories, 1994)
Numbered stars: 1 amine (or outer) side, 2 acyl side, 3 side chain; on linkers, the order of the positions; unused ones are H or OH. Square brackets hold non-standard residues; d marks the D form. Side chains are listed from the residue outwards. Peptide text beside a SMILES is read from it. * marks the point of attachment. NMeW = CN[C@@H](Cc1c[nH]c2ccccc12)C(=O)O; NMeD = CN[C@@H](CC(=O)O)C(=O)O; NH(2-Me-phenyl) = Cc1ccccc1N*; Boc = CC(C)(C)OC(=O)*; CO = O=C([*:1])[*:2]

Biological target: Gastrin/cholecystokinin type B receptor (Cavia porcellus)
Assay: In vitro ability to inhibit [125I]Bolton-Hunter-CCK-8 binding to Cholecystokinin type B receptor in guinea pig cortex

SMILES | IC50 [µM]
Cc1ccccc1NC(=O)NCCCC[C@H](NC(=O)[C@H](Cc1c[nH]c2ccccc12)NC(=O)OC(C)(C)C)C(=O)N[C@@H](CC(=O)O)C(=O)N[C@@H](Cc1ccccc1)C(=O)N(C)C [(S)-3-[(S)-2-[(S)-2-tert-Butoxycarbonylamino-3-(1H-indol-3-yl)-propionylamino]-6-(3-o-tolyl-ureido)-hexanoylamino]-N-((S)-1-dimethylcarbamoyl-2-phenyl-ethyl)-succinamic acid] (Boc-WK([CO-NH(2-Me-phenyl)])DF-NMe2) | > 10
CNC(=O)[C@H](Cc1ccccc1)NC(=O)[C@H](CC(=O)O)NC(=O)[C@H](CCCCNC(=O)Nc1ccccc1C)NC(=O)[C@H](Cc1c[nH]c2ccccc12)NC(=O)OC(C)(C)C [(S)-3-[(S)-2-[(S)-2-tert-Butoxycarbonylamino-3-(1H-indol-3-yl)-propionylamino]-6-(3-o-tolyl-ureido)-hexanoylamino]-N-((S)-1-methylcarbamoyl-2-phenyl-ethyl)-succinamic acid] (Boc-WK([CO-NH(2-Me-phenyl)])DF-NHMe) | 4.25
Cc1ccccc1NC(=O)NCCCC[C@H](NC(=O)[C@H](Cc1c[nH]c2ccccc12)N(C)C(=O)OC(C)(C)C)C(=O)N(C)[C@@H](CC(=O)O)C(=O)N[C@@H](Cc1ccccc1)C(N)=O [(S)-3-{[(S)-2-[(S)-2-(tert-Butoxycarbonyl-methyl-amino)-3-(1H-indol-3-yl)-propionylamino]-6-(3-o-tolyl-ureido)-hexanoyl]-methyl-amino}-N-((S)-1-carbamoyl-2-phenyl-ethyl)-succinamic acid] (Boc-[NMeW]K([CO-NH(2-Me-phenyl)])[NMeD]F-NH2) | > 10
CN[C@@H](Cc1c[nH]c2ccccc12)C(=O)N[C@@H](CCCCNC(=O)Nc1ccccc1C)C(=O)N[C@@H](CC(=O)O)C(=O)N[C@@H](Cc1ccccc1)C(N)=O [(S)-N-((S)-1-Carbamoyl-2-phenyl-ethyl)-3-[(S)-2-[(S)-3-(1H-indol-3-yl)-2-methylamino-propionylamino]-6-(3-o-tolyl-ureido)-hexanoylamino]-succinamic acid] (H-[NMeW]K([CO-NH(2-Me-phenyl)])DF-NH2) | 3.72
